These results are taken from PubChem BioAssay AID1417 (Emory University Molecular Libraries Screening Center, 2008).

A value given as a limit tells only on which side of the number the result lay.

In this test the target is Induced myeloid leukemia cell differentiation protein Mcl-1 (Homo sapiens) (UniProt Q07820). The test is described as follows: Mcl-1 Noxa peptide disruption concentration-response – biochemical, TR-FRET, dose response (AID 1417). The conditions noted are these: Mcl-1/Noxa peptide interaction, cell-free TR-FRET (terbium/rhodamine), 2 h; measured here: absolute IC50.
Chain of Induced myeloid leukemia cell differentiation protein Mcl-1 (Homo sapiens) (Q07820 whole entry, looked up): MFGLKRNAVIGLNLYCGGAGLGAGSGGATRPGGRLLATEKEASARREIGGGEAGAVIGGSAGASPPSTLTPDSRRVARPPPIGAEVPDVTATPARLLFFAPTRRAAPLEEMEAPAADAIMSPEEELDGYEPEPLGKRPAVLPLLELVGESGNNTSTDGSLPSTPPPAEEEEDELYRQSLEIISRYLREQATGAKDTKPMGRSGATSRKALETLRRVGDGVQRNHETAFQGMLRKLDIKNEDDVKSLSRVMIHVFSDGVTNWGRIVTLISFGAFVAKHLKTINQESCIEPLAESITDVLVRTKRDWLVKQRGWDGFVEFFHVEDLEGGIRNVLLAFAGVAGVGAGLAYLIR
As for `Cc1cc(=O)oc2cc(OCc3ccc(C(=O)OCC(=O)Nc4ccc(N(C)C)cc4)cc3)ccc12`, the concentration for half-maximal inhibition (IC50) was under 0.4 µM.

In turn, `Nc1cc2c(cc1[N+](=O)[O-])OCO2` registered a 50% inhibitory concentration (IC50) of 6.98 µM.

Consider `CCN(c1ccc(NC(=O)COC(=O)c2cccs2)cc1)C(C)C`, for which the IC50 is over 54 µM.

The compound `CN(C)c1ccc(NC(=O)CCCc2ccccc2)cc1` came in with a concentration for half-maximal inhibition (IC50) of over 54 µM.

Compound `O=C1NC(=S)N/C1=C/c1ccc(-c2c(Br)cc([N+](=O)[O-])cc2Br)o1` registered an IC50 of 1.45 µM.

`COc1ccc(C(=O)c2sc3nc(-c4ccc(OC)cc4)ccc3c2N)cc1`: the IC50 is over 54 µM.

The compound `Cc1cccc(N=C2NC(=O)/C(=C/C=C/c3ccco3)S2)c1` had a concentration for half-maximal inhibition (IC50) of 13.5 µM.

In turn, `CN1c2ccccc2N(C)C1(C)c1ccccc1` yielded a half-maximal inhibitory concentration (IC50) of 1.12 µM.

Take `NC(=S)n1[nH]c(-c2ccc([N+](=O)[O-])cc2)c(N=Nc2ccccc2[N+](=O)[O-])c1=O`: the concentration for half-maximal inhibition (IC50) is under 0.4 µM.

`Nc1cc2nc[nH]c2cc1N`: the IC50 came to 52.8 µM.

For the compound `CCC1=NNc2cccc3c(OC)ccc1c23`, the IC50 was over 54 µM.

`Cc1cc(C)c(S(=O)(=O)Nc2cc(SCC(=O)O)c(O)c3ccccc23)cc1C` registered a half-maximal inhibitory concentration (IC50) of under 0.4 µM.

`O=[N+]([O-])c1ccc2c(c1)N([O-])C1(CCCCC1)[N+]2=O`: the half-maximal inhibitory concentration (IC50) is under 0.4 µM.

Compound `CC1CCN(C(c2ccc(N(C)C)cc2)c2nnnn2C(C)(C)C)CC1` (configuration not stated) registered an IC50 of 12.5 µM.

Compound `CC(=O)C1=C(S(=O)(=O)c2ccc(C)cc2)CS(=O)(=O)C1` yielded an IC50 of under 0.4 µM.

Compound `O=C(/C=C/c1ccccc1)c1ccc(NC2=NCCCS2)cc1` registered a half-maximal inhibitory concentration (IC50) of 6.52 µM.

For the compound `O=C(NCC1CCCO1)c1ccc(Cn2c(=S)[nH]c3ccccc3c2=O)cc1` (configuration not stated), the IC50 is over 54 µM.

With `COCCNC(=O)Nc1ccc2nc(-c3ccco3)c(-c3ccco3)nc2c1`, the IC50 is under 0.4 µM.

In the case of `O=C(O)CCCCCN1C(=O)/C(=C\c2cn(-c3ccccc3)nc2-c2cccs2)SC1=S`, the IC50 was 2.5 µM.

`O=[N+]([O-])C(=c1ccc2c(c1)N1C3=C(CCCC3)CC3CCCCC31N=2)[N+](=O)[O-]` (configuration not stated): the IC50 is under 0.4 µM.

As to `O=C(O)c1ccccc1NS(=O)(=O)c1ccc(NNC(=S)Nc2ccc(OC(F)F)cc2)c([N+](=O)[O-])c1`, the IC50 is under 0.4 µM.

Compound `O=C(O)CSc1cc(C(=O)c2ccccc2O)cn2c(=O)c3c(-c4ccccc4)csc3nc12` registered an IC50 of 5.71 µM.

`CC(C)Nc1nnc(SCC(=O)Nc2ccc3c(c2)C(=O)c2ccccc2C3=O)s1` registered a concentration for half-maximal inhibition (IC50) of 2.01 µM. Against the preceding compound, the IC50 is about 2.8-fold lower.

As to `CN1C=C/C(=C\c2cc[n+](C)c3ccccc23)c2ccccc21`, the concentration for half-maximal inhibition (IC50) was under 0.4 µM.

Turning to `COc1ccc(OCC(=O)Nc2nnc(-c3ccco3)s2)cc1`, the IC50 is 3.81 µM.

`COc1ccccc1NC(=O)c1cc2cc(Br)ccc2cc1O` registered an IC50 of 2.11 µM. Compared with the last compound, the IC50 is about 1.8-fold lower.

`COc1ccc(NC(=O)CSc2ncnc3c2sc2ccccc23)c(OC)c1` came in with an IC50 of over 54 µM.

In the case of `Cc1cccc(C(=O)N=c2c(C#N)cc3c(=O)n4cccc(C)c4nc3n2Cc2ccco2)c1`, the IC50 amounted to 4.26 µM.

On to `CCOc1ccc(C2C3=C(Nc4nc(N)[nH]c(=O)c42)c2ccccc2C3=O)cc1` (configuration not stated), for which the IC50 was found to be 23.3 µM.

For `O=C1C(Cl)=C(Nc2ccc3cn[nH]c3c2)C(=O)c2ccccc21`, the IC50 was under 0.4 µM.

Regarding `COc1cc(-c2nnc(SCc3cc(=O)oc4cc(O)c(O)cc34)o2)cc(OC)c1OC`, the IC50 is under 0.4 µM.

`CCOC(=O)CSc1nc(N)c(C(=O)Nc2ccc(N(C)C)cc2)s1` showed an IC50 of 0.523 µM.

Regarding `CC(=O)c1cc(C#N)c(SCc2ccccn2)nc1C`, the concentration for half-maximal inhibition (IC50) is over 54 µM.

For the compound `COc1ccc(N2CCC(CNS(=O)(=O)c3cccc(C(F)(F)F)c3)C2)cc1` (configuration not stated), the half-maximal inhibitory concentration (IC50) is under 0.4 µM.

For the compound `CCCCn1c(SCC(=O)NCCOC)nc2ccc(N3CCOCC3)cc2c1=O`, the half-inhibitory concentration (IC50) was over 54 µM.

`Oc1ccc(/C=N/n2cc(-c3ccccc3)[nH]c2=S)cc1`: the IC50 is under 0.4 µM.

`CCOC(=O)c1c(CSc2ccc(C)cc2)n(C)c2cc(Br)c(O)c(CN(C)C)c12` yielded an IC50 of 3.33 µM. In other words, the single-digit micromolar range.

In the case of `CN(C)c1ccc(NC(=O)/C=C/c2ccccc2Cl)cc1`, the IC50 is under 0.4 µM.

Take `CS(=O)(=O)C1=NSC2=NC(=O)/C(=C\c3cccn3-c3ccc(Cl)cc3)C(=N)N21`: the IC50 was 3.74 µM.

Regarding `CN(C)c1ccc(NC(=O)/C=C/c2c(Cl)cccc2Cl)cc1`, the IC50 was over 54 µM.

Turning to `O=C1N=c2ccc(Br)cc2=C1c1sc(=S)n(NS(=O)(=O)c2ccccc2)c1O`, the half-inhibitory concentration (IC50) was over 54 µM.

The compound `CN(C)c1ccc(NC(=O)c2cccc(N3C(=O)C4C5C=CC(C5)C4C3=O)c2)cc1` (configuration not stated) had a concentration for half-maximal inhibition (IC50) of over 54 µM.

In turn, `CCOC(=O)c1c(NC(=O)N/N=C/c2ccc(O)c(OC)c2)sc(C(C)=O)c1C` gave a concentration for half-maximal inhibition (IC50) of 1.59 µM.

Take `O=C(/C=C/c1ccc(O)c(O)c1)O[C@H](Cc1ccc(O)c(O)c1)C(=O)O`: the IC50 was under 0.4 µM.

`Cc1ccc2nc(N3C(=O)C(O)=C(C(=O)c4cc5ccccc5o4)C3c3cccs3)sc2c1` (configuration not stated) returned a half-inhibitory concentration (IC50) of 1.22 µM.

`CCOC(=O)c1cc(-c2ccco2)nc2c1c(C)nn2-c1cccc(Cl)c1` came in with an IC50 of 2.36 µM.

The compound `CN(C)c1ncc(C2=C(Cl)C(=O)C(N3CCCC3)=C(Cl)C2=O)s1` had a 50% inhibitory concentration (IC50) of under 0.4 µM.

For `O=C(O)COc1ccccc1C(Nc1ccccn1)c1cc(Cl)c2cccnc2c1O` (configuration not stated), the IC50 was under 0.4 µM.

`CC(C)Oc1ccc(C(=O)Nc2ccc(N(C)C)cc2)cc1` showed an IC50 of over 54 µM.

Compound `[O-][n+]1onc2c1CCC(=N/O)/C2=N\Nc1ccccc1` gave a half-maximal inhibitory concentration (IC50) of 1.06 µM.

Take `O=c1oc2ccccc2c(O)c1/C=C1\C=Nc2ccccc21`: the IC50 amounted to 4.8 µM.

Regarding `Cc1ccc(N2NC(=O)/C(=C\c3cc4c(cc3[N+](=O)[O-])OCO4)C2=O)cc1C`, the half-maximal inhibitory concentration (IC50) amounted to 4.92 µM.

Regarding `CSc1nnc(-c2ccco2)c(-c2ccco2)n1`, the IC50 came out at 13.2 µM.

In turn, `COc1ccccc1CNC(=O)COC(=O)c1cc(-c2ccco2)nc2ccccc12` had an IC50 of 1.8 µM.

In turn, `COc1ccc(N2CCC(CNC(=S)Nc3cccc(OC)c3)C2)cc1` (configuration not stated) came in with an IC50 of over 54 µM.

As to `O=C(N/N=C/c1ccc(-c2ccccc2C(=O)O)o1)c1cccs1`, the IC50 was found to be 7.88 µM.

In turn, `COc1ccc(-n2c(N)c(-c3nc4ccccc4n3C)sc2=S)cc1` gave a concentration for half-maximal inhibition (IC50) of over 54 µM.

Compound `CN(C)c1ccc(Nc2nc(N)c([N+](=O)[O-])c(N3CCOCC3)n2)cc1` gave a 50% inhibitory concentration (IC50) of under 0.4 µM.

`CC(=O)c1cc(O)c2ccccc2c1O` yielded a concentration for half-maximal inhibition (IC50) of under 0.4 µM.

`COC(=O)c1ccc(=O)c2nc3/c(=C/O)c(O)cc(=O)c3[nH]c12` gave an IC50 of under 0.4 µM.

As to `CCOC(=O)c1c(NC(=O)c2cc(-c3ccc(O)cc3)on2)sc(C(C)=O)c1C`, the concentration for half-maximal inhibition (IC50) came out at 10.9 µM.

In the case of `CCS(=O)(=O)N1CCN(C(C)CCc2ccccc2)CC1` (configuration not stated), the IC50 is over 54 µM.

Compound `COc1ccc(NC(=O)Cn2ncc(Cl)c(Cl)c2=O)cc1S(=O)(=O)N1CCOCC1` gave a concentration for half-maximal inhibition (IC50) of 4.88 µM.

`O=C(OCC1O[C@@H](OC(=O)c2cc(O)c(O)c(O)c2)[C@@H](OC(=O)c2cc(O)c(O)c(O)c2)[C@@H](OC(=O)c2cc(O)c(O)c(O)c2)[C@@H]1OC(=O)c1cc(O)c(O)c(O)c1)c1cc(O)c(O)c(O)c1` (some centres not stated) yielded an IC50 of under 0.4 µM.

As to `CCOC(=O)C1=C(O)/C(=C/c2cc(OC)c(O)c(OC)c2)SC1=Nc1ccc(OC)cc1`, the 50% inhibitory concentration (IC50) is over 54 µM.

With `Cc1ccc(C2=NC(=O)/C(=C/c3cc(O)c(O)c(Br)c3)S2)cc1`, the 50% inhibitory concentration (IC50) is under 0.4 µM.

Turning to `O=C1C2C3C=CC(C2C(=O)N1c1cccc(O)c1)C1C2C(=O)N(c4cccc(O)c4)C(=O)C2C31` (configuration not stated), the IC50 was over 54 µM.
